Source: US6130333A, “Bicyclic imidazolyl derivatives as phosphodiesterase inhibitors, pharmaceutical compositions and method of use” (Monsanto Company, priority 1998, dated 2000)

What was measured:
[1] = test system: cAMP PDE from bovine aorta; test: Assay for inhibition of cAMP PDE; type: biochemical; details: bovine aorta enzyme; [3H]cAMP substrate; averaged where multiple testing
Experimental: (§1) Phosphodiesterase enzymes were partially purified according to the procedures reported by Francis, S. H., and Corbin, J. D. (1988) in Methods in Enzymology, Vol. 159, pp. 722-729, Academic Press, New York and Bradford, M. M. in (1976) Anal. Biochem. 72, 248-254. Specifically, the purification was accomplished by chromatography of a bovine aorta extract on a DEAE Tris-acryl column. The eluted fractions were assayed for the various specific activities. The specific enzyme activities were pooled and concentrated. […] The cGMP-specific phosphodiesterase was assayed in the presence of 1 μM cGMP. The calcium/calmodulin dependent enzyme activity was assayed in the presence of 1 μM cGMP, 0.5 units calmodulin (Sigma P-0270, phosphodiesterase 3',5'-cyclic nucleotide activator from bovine heart) per ml of reaction, and 100 μM Ca^2+.
(§2) Enzyme assays were performed in Millipore 96-well polystyrene microtiter plates in a total assay volume of 100 μL of buffer containing 100 mM Tris-HCl and 5 mM MgSO4 at pH 7.5. cGMP PDE inhibitor compounds were dissolved in DMSO at a concentration of 10 mM and then diluted into the assay to give a final concentration of DMSO in the assay of 1% which has no effect on the enzymatic reaction. The reaction mixture consisted of 10 μL diluted inhibitor, 10 μL of a solution of the appropriate phosphodiesterase enzyme preparation, and 60 μL buffer. The reaction was initiated by the addition 20 μL of 5μM [3H]cGMP (100,000 DPM/well). The tritiated cGMP nucleotides were obtained from DuPont/New England Nuclear Lifesciences Company, Boston, Mass. as an ammonium salt (NET-554 guanosine 3',5'-cyclic phosphate, [8,5'-^3 H]).
(§3) After a 30 minute incubation at room temperature the reaction was stopped by the addition of 50 μL of 210 mM ZnSO4 followed by an addition of 50 μL of freshly prepared 19 mM Ba(OH)2 to specifically precipitate the radiolabled 5'-nucleotide product. The Zn--Ba precipitate was filtered onto glass-fiber filters mats (Wallac, Filtermat A, 102×258 mm) using an automated 96-well harvester (TOMTEC Harvester 96®, MACH II). The precipitate was washed from the microtiterplate to the filtermat with a total volume of 1 ml/well of a wash buffer containing 1 mM NaOH and 100 mM NaCl. The filtermat were dried in a microwave oven and placed in a Wallac sample bag for use with the 1205 BetaPlate™. 10 ml of Beta Plate Scint (LKB) was added to the bag and allowed to diffuse throughout the filter. The radiolabel was then quantitated using a LKB/Wallac 1205 BetaPlate™ scintillation counter. Inhibitor dilution curves were created using six concentrations of the inhibitor in duplicate. IC50 values were determined from a linear regression of a Log Logit transformation of the data. M&B 22,948 (2-o-propoxyphenyl-8-azapurin-6-one) was used as the standard control inhibitor for cGMP PDE and was prepared according to U.S. Pat. No. 3,819,631.
The procedure for the inhibition of cAMP PDE was identical to the procedure for the cGMP-specific phosphodiesterase assay above, except that partially purified cAMP PDE from bovine aorta was collected as pooled from the DEAE tris-acryl column based upon its elution relative to cGMP-specific PDE as well as its specificity for cAMP by hydrolysis and then used. The partially purified cAMP PDE was stored as a concentrated solution at 4° C. This enzyme was diluted 1:30 with an assay buffer prior to use. A substrate solution of [^3 H]cAMP was added to 5 μM adenosine 3', 5'-cyclic monophosphate sodium salt in assay buffer to give a solution with a specific activity of 1000 CPM/pmole (100,000 CPM/20 μl). The reaction was initiated by the addition 20 μL of 5 μM [3H]cAMP (100,000 DPM/well). The tritiated cAMP nucleotides were obtained from DuPont/New England Nuclear Lifesciences Company, Boston, Mass. as an ammonium salt (NET-275 adenosine 3',5'-cyclic phosphate, (2,8-^3 H]). Ro 20-1724 was used as the standard control (obtained from Hoffmann LaRoche, Nutley, N.J.).

[2] = target: T1, cGMP-specific PDE from bovine aorta (Bos taurus, UniProt Q28156); test: Assay for inhibition of cGMP PDE; type: biochemical; details: bovine aorta enzyme; 30 minute incubation at room temperature, pH 7.5; averaged where multiple testing
T1 construct: chromatography of a bovine aorta extract on a DEAE Tris-acryl column; from tissue; host or cells: bovine aorta
Experimental: as §1
The partially purified cGMP-specific PDE from bovine aorta was stored as a concentrated solution in glycerol at 4° C. Prior to use it was diluted approximately 1:3000 with an assay buffer containing 100 mM Tris-HCl and 5 mM MgSO4 at pH 7.5 to give approximately 10% conversion of cGMP substrate to GMP in a 30 minute reaction time.
as §2, §3

[3] = test system: ca/calmodulin dependent cGMP PDE from bovine aorta; test: Assay for inhibition of calcium/calmodulin dependent cGMP phosphodiesterase enzyme (Ca PDE); type: biochemical; details: CaCl2 and calmodulin, averaged where multiple testing, read-out: Ca GMP PDE IC50
Experimental: as §1, §2, §3
The procedure for the calcium/calmodulin dependent cGMP PDE assay was identical to the cGMP-specific phosphodiesterase assay described above, except for the following changes noted below. Partially purified ca/calmodulin dependent cGMP PDE enzyme from bovine aorta was collected as a pool based upon its elution relative to cAMP-dependent PDE and conformational changes introduced by the addition of 1 mM EDTA for 1 hour at 4° C. It was then diluted 1:1800 in assay buffer containing 143 μM CaCl2 and 0.7 units of calmodulin/ml and 70 μl of this enzyme solution was used per assay well. The standard control used was Vinpocetine purchased from Gedeon Richter LTD, Budapest, Hungary.

[4] = In vivo blood pressure measurement in rats (femoral artery catheter); design: species or system male Sprague Dawley rats; details: intraperitoneal injection
Source text: The FIGURE is a plot of mean blood pressure (mmHg) versus time (min) for anesthetized male Sprague Dawley rats (Charles River Laboratories, Wilmington, Mass.) following administration of a cyclic GMP phosphodiesterase inhibitor of this in vention by intraperitoneal injection.
Polyethylene catheters (PE50) were inserted into the femoral artery and vein of anesthetized male Sprague Dawley rats (Charles River Laboratories,Wilmington, Mass.) in order to monitor the mean arterial pressure and administer test compounds. Following surgery, the animals were place in individual restraining cages and allowed to regain consciousness. Infusion of 0.9% sodium chloride via the femoral vein (0.07 ml/kg/min) was begun and continued throughout the study period. Observations were begun approximately 90 minutes after the initiation of infusion to allow the animals to fully regain consciousness. Blood pressure was continuously monitored via the femoral artery with a pressure transducer (type 041-500-503; Cobe, Lakewood, Colo.) connected to a Grass Model 7E polygraph. Mean arterial pressure and heart rates were recorded at 3 minute intervals by a computerized data acquisition system. Cyclic GMP phosphodiesterase inhibitor (Example 41) was administered as an intraperitoneal injection, alternatively the inhibitor could have been administered directly into the catheter as an intravenous bolus.

[5] = rats; McMahon et al. 1989; cited from earlier work

SMILES	IC50 [1] [µM]	IC50 [2] [nM]	IC50 [3] [µM]	reduction in blood pressure [4]	mean arterial pressure [5]	urinary cGMP (and not cAMP) levels [5]
c1ccc(Cn2c(-c3ccc4c(c3)OCO4)nc3ccccc32)cc1 [Example 25, 2-(1,3-Benzodioxol-5-yl)-1-phenylmethyl-1H-benzimidazole]	12.4	11	75	–	–	–
c1ccc2cc(Cn3c(-c4ccc5c(c4)OCO5)nc4ccccc43)ccc2c1 [Example 29, 2-(1,3-Benzodioxol-5-yl)-1-(2-naphthalenylmethyl)-1H-benzimidazole]	5.2	24	60	–	–	–
Fc1ccccc1Cn1c(-c2ccc3c(c2)OCO3)nc2ccccc21 [Example 30, 2-(1,3-Benzodioxol-5-yl)-1-(2-fluorophenylmethyl)-1H-benzimidazole]	> 100	4	> 100	–	–	–
c1ccc2c(c1)nc(-c1ccc3c(c1)OCO3)n2Cc1ccc2c(c1)OCO2 [Example 41, 2-(1,3-Benzodioxol-5-yl)-1-[(1,3-benzodioxol-5-yl)methyl]-1H-benzimidazole]	11.9	3	64.5	A reduction in blood pressure was observed	–	–
Cc1ccc(-c2nc3ccccc3n2Cc2ccc3c(c2)OCO3)cc1 [Example 42, 1-[(1,3-benzodioxol-5-yl)methyl]-2-(4-methylphenyl)-1H-benzimidazole]	18	9	60	–	–	–
c1ccc(Cn2c(-c3ccc4c(c3)OCO4)nc3cccnc32)cc1 [Example 43, 2-(1,3-Benzodioxol-5-yl)-3-(phenylmethyl)-3H-imidazo[4,5-b]pyridine]	7.3	3	> 100	–	–	–
CCCOc1ccccc1-c1nc2[nH]nnc2c(=O)[nH]1 [M&B 22,948, 2-o-propoxyphenyl-8-azapurin-6-one]	–	–	–	–	dose-dependent reduction in the mean arterial pressure	increase in urinary cGMP (and not cAMP) levels
